{"source": "patent US6995136B1", "about": "“Peptide fragments of murine epidermal growth factor as laminin receptor targets” (The Queen's University of Belfast, priority 1998, dated 2006)", "key": {"[1]": {"tested_on": "C57-BL/6J mice", "assay": "Murine model of proliferative retinopathy (retinopathy of prematurity, ROP)", "assay_type": "in vivo, mouse", "protocol": "Litters of 7 day old C57-BL/6J mice, together with their nursing dams, are exposed to 80% oxygen in an incubator maintained at 23° C. and with a gas exchange of 1.5 L/min for 5 days according to the protocol described by Stitt et al. (1998). On postnatal day 12 (P12) the animals are returned to room air and sacrificed at various times posthyperoxia. Animals are treated with daily i.p. injections of either laminin agonists (10 μg per head per day) or vehicle control. Groups of room air controls are maintained in parallel with hyperoxia-exposed animals. Home Office project and personal licenses are held for this work. All animals are housed and maintained in accordance with the ARVO regulations for animal care in research.\nAnimals are sacrificed at pre-determined key stages in the vaso-obliteration (P7–P12), ischaemia (P12 onwards) and vaso-proliferative responses (P 12–21). At sacrifice, terminally anaesthetised animals have a single eye enucleated and the retina removed to be snap-frozen for later RNA-extraction (see below). The fellow eye is either perfused with fluorescein dextran or enucleated and fixed in 4% paraformaldehyde for histology, immunohistochemistry and in situ hybridisation."}, "[2]": {"tested_on": "angiogenesis in the chick", "assay": "Chick angiogenesis model", "assay_type": "in vivo", "conditions": "chick"}, "[3]": {"tested_on": "Endothelial cells (SK HEP-1 and BRCE)", "assay": "Migration assay (colloidal gold track area)", "assay_type": "cell-based", "conditions": "mammalian cell lines", "protocol": "The method used was basically as described by Albrecht-Buehler (1977). Briefly, coverslips (22×22 mm) were treated in 5% detergent (7×; ICN Biomedicals) and washed in alcohol to remove grease. After drying, they were immersed in gelatin solution (Sigma, 300 Bloom; 0.5 g in 300 ml distilled H2O) for 10 min. The coverslips were then dried by placing in a 70° C. oven for 45 min.\nColloidal gold suspension was prepared by adding 11 ml distilled H2O and 6 ml Na2CO3 (36.5 mM) to 1.8 ml AuHCl4 (14.5 mM). The mixture was heated to 95° C. at which point 1.8 ml of freshly prepared 0.1% formaldehyde solution was added; the temperature was maintained at 95° C. A suspension of colloidal gold was formed which was brown to absorbed light and blue to transmitted light.\nThe gold suspension, was then added to petri dishes containing individual coverslips and the plates incubated at 37° C. for 45 min. After washing with CFS (3×4 ml) to remove unattached gold particles, the coverslips were transferred to 6-well cluster dishes and UV sterilised.\nEndothelial cells (SK HEP-1 and BRCE) in culture media (0.3 ml) were seeded onto the coverslips at an approximate density of 5×10^3 cells per well. The cells were allowed to plate down for 2 h at 37° C. after which the treatments were added. Assay systems were maintained for a further 18 h after which the cells were fixed using 3% gluteraldehyde in cacodylate buffer (pH 7.2).\nThe assays were examined using a Leica DM1RB phase contrast microscope and Q500MC image analysis system incorporating a JVC TK-1280E colour camera (Leica, Milton Keynes, UK). The track images of at least 30 cells were videocaptured and the area (representing migration response) determined for each. Statistical analysis of these areas was then carried out using Macintosh Instat software to perform both Kruskal-Wallis analysis of variance and Mann-Whitney U-tests in order to compare the treatment groups with controls."}, "[4]": {"target": "T1, 67 kDa laminin receptor (67-LR) (Homo sapiens, UniProt P08865)", "T1 construct": "endogenous in cells; host or cells: T47-D or SK HEP-1 cells (whole-cell suspension)", "assay": "125I-laminin displacement (competition binding) on T47-D or SK HEP-1 cells", "conditions": "relative to mEGF(33-42); 0.1 nM 125I-laminin, overnight 4° C.", "protocol": "^125I-laminin was prepared using ^125I-labelled sodium iodide (Amersham, UK) and immobilised chloramine-T (Iodobeads; Pierce, Ill.). Prior to use, the beads were washed with 500 μl phosphate buffer (pH 6.5) to remove excess reagent from the support. These were then allowed to air dry and individual beads added to a solution of carrier free Na^125I, diluted with iodination buffer (phosphate buffer pH 7.4). The beads were allowed to equilibrate for 5 min.\nLaminin (10 μg in 10 μl) was then diluted into the iodination buffer and the system incubated at 20° C. for 15 min. The solution was then removed from the reaction vessel and excess Na^125I and unincorporated ^125I2 separated from the iodinated protein by gel filtration on a GF-5 exclusion column (Pierce, Ill.). Iodinated laminin fractions were recovered at a specific activity of approximately 1.2 mCi/mg protein (864 Ci/mmol).\nNear confluent cultures of T47-D or SK HEP-1 cells were removed from monolayer with 0.02% EGTA and passed through a G-25 syringe needle to produce single cell suspensions. Aliquots of each cell type (10^6 cells/ml) were dispensed into separate Ependorf tubes (1 ml each) and pelleted. The cells were then resuspended in 1 ml ice-cold RPMI (SK HEP-1) or DMEM (T47-D) containing 0.1% BSA and either laminin or synthetic peptide at the concentrations indicated. Iodinated laminin was then added to each cell suspension to give a final ^125I-laminin concentration of 0.1 nM (approximately 50,000 cpm). These mixtures were incubated overnight at 4° C.\nThe tubes were then microfuged at 10,000 g and the supernatant removed. After washing the pellet with 500 μl CFS, the remaining radioactivity was determined using a gamma radiation counter. Non-specific binding was determined by incubating cells with a 1000-fold molar excess of unlabelled laminin. All estimations were carried out in triplicate.\nIC50 (concentration of unlabelled peptide required to produce 50% inhibition of radioligand binding) and EC50 (effective concentration for 50% inhibition of cell attachment) values were calculated using the Grafit curve-fitting programme (Erithacus Software, London, UK)."}, "[5]": {"tested_on": "tumour cells", "conditions": "already known in the field; cited from earlier work"}, "[6]": {"tested_on": "angiogenesis in the chick", "conditions": "already known in the field; cited from earlier work"}, "[7]": {"conditions": "FIG. 1b versus 1a, 10 μg per head per day i.p."}}, "data": [{"sequence": "CDPGYIGSR [Lam.β-1(925-933), CDPGYIGSR-NH2, synthetic peptide of amino acids 925–933 of the laminin β-1 chain, 67LR agonist, reference compound]", "values": [{"measurement": "re-canalisation of areas of vaso-obliteration", "setting": "[1]; [7]", "value": "promotes re-canalisation of areas of vaso-obliteration"}, {"measurement": "uncontrolled angiogenic response of ROP", "setting": "[1]; [7]", "value": "prevents the uncontrolled angiogenic response of ROP"}, {"measurement": "development of ROP", "setting": "[1]; neonates, daily intraperitoneal injections of 10 μg", "value": "development of ROP can be prevented"}, {"measurement": "laminin agonist/antagonist character in chick", "setting": "[2]", "value": "partial laminin antagonist"}, {"measurement": "67LR agonist/antagonist character in mammalian cell lines", "setting": "[3]", "value": "pure agonist"}, {"measurement": "67LR agonist/antagonist character in mammalian cell lines", "setting": "[3]; listed as laminin β-1925-933", "value": "pure 67LR agonist"}, {"measurement": "receptor affinity, 125I-laminin displacement (IC50), in words", "setting": "[4]", "value": "equipotent"}, {"measurement": "tumour establishment in mice", "setting": "[5]", "value": "inhibit tumour establishment in mice"}, {"measurement": "angiogenesis in the chick", "setting": "[6]", "value": "inhibits angiogenesis in the chick"}]}]}
